Laboratory results: PMC9030691, “Toxicokinetics of β-Amanitin in Mice and In Vitro Drug–Drug Interaction Potential” (Pharmaceutics, 2022)
“Also recorded” adds a separate entry of the source. Read-outs that look alike come from different tables or passages of the source.

Experiments:
[1] = molecular target: T1, CYP2A6 (Homo sapiens, UniProt P11509); test: CYP2A6 inhibition in human liver microsomes; format: in vitro ADME; conditions: ultrapooled human liver microsomes 0.2 mg/mL, 2.5 μM coumarin, β-amanitin 0.1–100 μM, pH 7.4, 37 °C, 15 min, LC-MS/MS, n = 3, read-out: IC50, CYP2A6 coumarin 7-hydroxylase
T1 construct: from tissue; host or cells: ultrapooled human liver microsomes
T1 sequence (P11509 whole entry): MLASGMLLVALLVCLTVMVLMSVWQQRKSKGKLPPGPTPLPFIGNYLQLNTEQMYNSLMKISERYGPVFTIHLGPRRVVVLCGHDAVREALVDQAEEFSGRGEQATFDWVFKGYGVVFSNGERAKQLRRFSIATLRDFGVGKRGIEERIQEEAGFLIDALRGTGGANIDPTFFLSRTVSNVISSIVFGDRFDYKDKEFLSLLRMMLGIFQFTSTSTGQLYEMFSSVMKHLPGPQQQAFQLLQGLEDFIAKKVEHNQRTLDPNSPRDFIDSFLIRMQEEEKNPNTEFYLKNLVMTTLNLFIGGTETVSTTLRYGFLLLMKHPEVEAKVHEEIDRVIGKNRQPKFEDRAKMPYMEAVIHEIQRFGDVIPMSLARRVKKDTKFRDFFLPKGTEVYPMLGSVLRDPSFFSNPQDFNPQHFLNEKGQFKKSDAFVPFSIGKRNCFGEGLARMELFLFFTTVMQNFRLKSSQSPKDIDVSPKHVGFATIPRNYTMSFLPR
Experimental: (§1) β-amanitin inhibition (IC50 values) of CYP1A2, CYP2A6, CYP2B6, CYP2C8, CYP2C9, CYP2C19, CYP2D6, and CYP3A4 enzyme activities in HLMs were evaluated using LC-MS/MS and CYP substrates as previously described. Each incubation mixture was made up to a volume of 100 μL including HLMs (0.2 mg/mL), 50 mM potassium phosphate buffer (pH 7.4), 1.0 mM NADPH, 10 mM magnesium chloride, various concentrations of β-amanitin (0.1–100 μM), a cocktail of seven CYP probe substrates (50 μM phenacetin for CYP1A2, 2.5 μM coumarin for CYP2A6, 2 μM amodiaquine for CYP2C8, 10 μM diclofenac for CYP2C9, 100 μM [S]-mephenytoin for CYP2C19, 5 μM bufuralol for CYP2D6, and 2.5 μM midazolam for CYP3A4 in acetonitrile), or 50 μM bupropion for CYP2B6. The reactions were initiated with NADPH followed by incubation in a shaking water bath at 37 °C for 15 min with or without 30 min preincubation with NADPH. Reactions were stopped with 50 μL of ice-cold methanol containing ^13C2, ^15N-acetaminophen and d9-1′-hydroxybufuralol (ISs). Incubation mixtures were centrifuged at 13,000× g for 8 min at 4 °C. An aliquot (5 μL) of the supernatant from the reaction mixture was analyzed by the previous LC-MS/MS method.

[2] = molecular target: T2, CYP3A4 (Homo sapiens, UniProt P08684); test: CYP3A4 inhibition in human liver microsomes; format: in vitro ADME; conditions: ultrapooled human liver microsomes 0.2 mg/mL, 2.5 μM midazolam, β-amanitin 0.1–100 μM, pH 7.4, 37 °C, 15 min, LC-MS/MS, n = 3, read-out: IC50, CYP3A4 midazolam 1′-hydroxylase
T2 construct: from tissue; host or cells: ultrapooled human liver microsomes
T2 sequence (P08684 whole entry): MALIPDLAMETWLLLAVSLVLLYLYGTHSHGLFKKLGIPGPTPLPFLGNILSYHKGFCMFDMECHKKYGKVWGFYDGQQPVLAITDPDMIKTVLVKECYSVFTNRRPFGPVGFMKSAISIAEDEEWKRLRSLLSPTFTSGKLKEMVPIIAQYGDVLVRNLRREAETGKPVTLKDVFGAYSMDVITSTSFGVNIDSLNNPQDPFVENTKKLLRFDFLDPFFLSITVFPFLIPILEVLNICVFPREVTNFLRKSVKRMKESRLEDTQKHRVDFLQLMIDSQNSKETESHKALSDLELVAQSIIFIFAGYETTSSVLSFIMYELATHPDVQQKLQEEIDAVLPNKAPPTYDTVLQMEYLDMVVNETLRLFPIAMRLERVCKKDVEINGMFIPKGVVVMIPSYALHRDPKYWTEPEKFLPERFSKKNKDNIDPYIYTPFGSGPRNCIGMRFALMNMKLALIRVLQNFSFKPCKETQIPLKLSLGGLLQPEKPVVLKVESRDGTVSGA
Experimental: as §1

[3] = test system: mice; test: Death or toxicity observed during the toxicokinetic study; format: in vivo; conditions: male ICR mice
Experimental: β-amanitin was dissolved in water and administered by iv bolus injection into the tail vein of mice at doses of 0.2 (n = 8), 0.4 (n = 6), and 0.8 (n = 7) mg/kg. Blood samples (approximately 15 μL) were collected from the retro-orbital plexus under light anesthesia with isoflurane at 0.033, 0.083, 0.25, 0.5, 0.75, 1, 1.5, 2, 3, 4, 6, and 8 h after drug administration.
β-amanitin was dissolved in water and administered to mice by gavage at doses of 2 (n = 7), 5 (n = 9), and 10 (n = 7) mg/kg. Blood samples (approximately 15 μL) were collected from the retro-orbital plexus under light anesthesia with isoflurane at 0.033, 0.083, 0.166, 0.25, 0.5, 0.75, 1, 1.5, 2, 4, 6, and 8 h after drug administration. Plasma samples (5 μL each) were harvested by centrifugation at 13,000× g for 3 min at 4 °C and stored at −80 °C until analysis.

[4] = molecular target: T3, CYP2C9 (Homo sapiens, UniProt P11712); test: CYP2C9 inhibition in human liver microsomes; format: in vitro ADME; conditions: ultrapooled human liver microsomes 0.2 mg/mL, 10 μM diclofenac, β-amanitin 0.1–100 μM, pH 7.4, 37 °C, 15 min, LC-MS/MS, n = 3, read-out: IC50, CYP2C9 diclofenac 4′-hydroxylase
T3 construct: from tissue; host or cells: ultrapooled human liver microsomes
T3 sequence (P11712 whole entry): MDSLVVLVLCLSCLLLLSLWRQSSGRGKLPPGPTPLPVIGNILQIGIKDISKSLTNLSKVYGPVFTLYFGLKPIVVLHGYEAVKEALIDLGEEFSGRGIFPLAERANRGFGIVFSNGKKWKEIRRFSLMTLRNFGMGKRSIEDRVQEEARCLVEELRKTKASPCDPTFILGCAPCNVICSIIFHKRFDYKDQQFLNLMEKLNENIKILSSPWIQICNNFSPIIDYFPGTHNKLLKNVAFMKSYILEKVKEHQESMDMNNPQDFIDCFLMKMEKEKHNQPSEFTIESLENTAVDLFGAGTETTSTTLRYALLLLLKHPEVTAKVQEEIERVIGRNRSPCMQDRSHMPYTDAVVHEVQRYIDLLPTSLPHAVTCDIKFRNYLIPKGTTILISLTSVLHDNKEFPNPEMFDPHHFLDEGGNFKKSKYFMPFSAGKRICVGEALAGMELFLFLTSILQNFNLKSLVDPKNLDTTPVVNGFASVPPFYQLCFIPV
Experimental: as §1

[5] = molecular target: T4, CYP1A2 (Homo sapiens, UniProt P05177); test: CYP1A2 inhibition in human liver microsomes; format: in vitro ADME; conditions: ultrapooled human liver microsomes 0.2 mg/mL, 50 μM phenacetin, β-amanitin 0.1–100 μM, pH 7.4, 37 °C, 15 min, LC-MS/MS, n = 3, read-out: IC50, CYP1A2 phenacetin O-deethylase
T4 construct: from tissue; host or cells: ultrapooled human liver microsomes
T4 sequence (P05177 1-516): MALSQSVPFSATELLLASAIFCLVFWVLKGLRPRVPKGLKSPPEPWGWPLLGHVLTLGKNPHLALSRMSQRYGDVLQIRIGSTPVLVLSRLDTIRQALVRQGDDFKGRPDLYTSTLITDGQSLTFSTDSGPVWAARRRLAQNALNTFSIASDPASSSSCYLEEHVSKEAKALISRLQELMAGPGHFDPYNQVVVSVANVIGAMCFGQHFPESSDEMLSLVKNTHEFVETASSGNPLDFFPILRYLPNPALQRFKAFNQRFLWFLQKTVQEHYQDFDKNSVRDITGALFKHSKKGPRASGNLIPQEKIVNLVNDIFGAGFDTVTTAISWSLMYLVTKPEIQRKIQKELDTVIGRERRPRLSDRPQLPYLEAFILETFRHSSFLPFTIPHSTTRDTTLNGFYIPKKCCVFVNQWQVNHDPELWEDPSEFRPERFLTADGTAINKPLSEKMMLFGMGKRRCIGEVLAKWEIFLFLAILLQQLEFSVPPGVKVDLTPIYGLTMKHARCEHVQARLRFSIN
Experimental: as §1

[6] = test system: rats; conditions: intraperitoneal injection; cited from earlier work
From the text: (§2) The Amanitaceae family is responsible for nearly 95% of all fatal mushroom poisonings, and amatoxins are the primary threats to human life. The content of amatoxins varies by Amanita species, but α- and β-amanitin are the most abundant substances. […] Among amatoxins, α-amanitin i ...

[7] = test system: mice; conditions: intraperitoneal injection; cited from earlier work
From the text: as §2

[8] = test system: humans; conditions: oral administration; cited from earlier work
Experimental: Amanita phalloides poisoning can cause acute hepatitis, leading to the rapid development of liver insufficiency and ultimately coma and death. Nephrotoxicity is reported less frequently. Yilmaz et al. reported that an oral intake of approximately 50 g of fresh Amanita phalloides, representing a dose of 0.32 mg/kg of amatoxins, can be lethal. A few reports are available that describe the toxicokinetics of α- and β-amanitin after the oral administration of toadstool extract to beagle dogs and rats. In addition, the toxicokinetics of α-amanitin were investi ... || The Amanitaceae family is responsible for nearly 95% of all fatal mushroom poisonings, and amatoxins are the primary threats to human life. The content of amatoxins varies by Amanita species, but α- and β-amanitin are the most abundant substances. […] Among amatoxins, α-amanitin i ...

[9] = with 30 min NADPH preincubation

Q: With `CC[C@H](C)[C@@H]1NC(=O)CNC(=O)[C@@H]2Cc3c([nH]c4cc(O)ccc34)[S@+]([O-])C[C@H](NC(=O)CNC1=O)C(=O)N[C@@H](CC(=O)O)C(=O)N1C[C@H](O)C[C@H]1C(=O)N[C@@H]([C@@H](C)[C@@H](O)CO)C(=O)N2` [β-amanitin] as the molecule, how does the IC50 [1, 9] read?
A: 80.1 µM

Q: And the IC50 ([1]; without NADPH preincubation)?
A: 93.9 µM

Q: And the IC50 [2, 9]?
A: > 100 µM

Q: What about the IC50 ([2]; without NADPH preincubation) of the same molecule?
A: > 100 µM

Q: And the “Death or serious toxicity after intravenous bolus administration” value ([3]; iv bolus via tail vein 0.2, 0.4 and 0.8 mg/kg)?
A: did not cause death or serious toxicity; also recorded: did not cause toxicity

Q: And the “Death or serious toxicity after oral administration” value ([3]; oral gavage 2, 5 and 10 mg/kg)?
A: did not cause death or serious toxicity; also recorded: did not cause toxicity

Q: What about the IC50 [4, 9] of the same molecule?
A: > 100 µM

Q: What about the IC50 ([4]; without NADPH preincubation) of the same molecule?
A: > 100 µM

Q: What about the IC50 [5, 9] of the same molecule?
A: > 100 µM

Q: And the IC50 ([5]; without NADPH preincubation)?
A: > 100 µM

Q: What does the source list for α-amanitin [reference compound]?
A: Lethal dose [6]: 4.0 mg/kg; Lethal dose [7]: 0.3 to 0.6 mg/kg; Lethal dose [8]: 0.1 mg/kg
